The record followed here is patent US5449680A, “2,2 disubstituted glycerol and glycerol-like compounds, compositions and methods of use” (Schering Corporation, priority 1992, dated 1995).

In the assay the test system is PAF-induced platelet aggregation. Kind of assay: PAF-induced platelet aggregation in human platelet-rich plasma (PRP), in vitro PAF antagonism assay. Type of assay: cell-based. The following applies: 37° C, 2 min preincubation, PAF 1-5×10^-8 M, read-out: Percent Inhibition. On the procedure:
These test procedures are standard tests used to determine PAF antagonistic activity and to evaluate the usefulness of said compounds for counteracting the biological effects of PAF. The in vitro assay is a simple screening test, while the in vivo test mimics clinical use of the compounds described herein.
Preparation of platelet-rich plasma (PRP): Human blood (50 ml) was collected from healthy male donors in an anticoagulant solution (5 ml) containing sodium citrate (3.8%) and dextrose (2%). Blood was centrifuged at 110× g for 15 min. and the supernatant (PRP) carefully transferred into a polypropylene tube. Platelet-poor-plasma (PPP) was prepared by centrifuging PRP at 12,000× g for 2 min. (Beckman Microfuge B). PRP was used within 3 hours of drawing the blood.
Platelet Aggregation Assay: When an aggregating agent such as PAF is added to PRP, platelets aggregate. An aggregometer quantifies this aggregation by measuring light transmission through PRP and comparing to PPP. The aggregation assays were performed using a dual channel aggregometer (Model 440, Chrono-Log Corp., Havertown, Penn.). PRP (0.45 ml)in aggregometer cuvettes was continually stirred (37° C). Solutions of test compounds or vehicle were added to the PRP, and after incubation for 2 min., 10-15 […] aliquots of PAF solution were added so as to achieve a final concentration of 1-5×10^-8 M. Incubations were continued until the increase in light transmission reached a maximum (usually 2 min). Values for inhibition were calculated by comparing maximal aggregation obtained in the absence and the presence of the compound. For each experiment, a standard PAF antagonist such as alprazolam was used as a positive internal control. The inhibitory concentration (IC50)is the concentration of compound in micromoles at which 50% of the aggregation is inhibited, as measured by the light transmission through each sample of PRP as compared to PPP.

Structures are written as SMILES.

Take `CCCCCCCCCCCCCCCCCCN(C)C(=O)OCC(C)(COP(=O)([O-])OCC[n+]1ccsc1)OC` (centres unmarked): the inhibition at 5 µM (Dose 5 μM) is 50%. `CCCCCCCCCCCCCCCCCCNC(=O)OCC(C)(COP(=O)([O-])OCC[n+]1ccsc1)OC` (centres unmarked): the inhibition at 10 µM was found to be 50%.

Regarding `CCCCCCCCCCCCCCCCOCC(C)(COC(=O)OCC[N+](C)(C)C)OC` (centres unmarked), where the note is “Dose 100 μM”, the inhibition at 100 µM amounted to 100%. Take `CCCCCCCCCCCCCCCCOCC(C)(COC(=O)OCC[N+]1(C)CCCC1)OC` (centres unmarked): the inhibition at 50 µM was 32%. Still for that read-out and setting: the value for `CCCCCCCCCCCCCCCCCCN(C)C(=O)OCC(C)(COP(=O)([O-])OCC[n+]1ccccc1)OC` (centres unmarked) was 43%; that for `CCCCCCCCCCCCCCCCCCN(C)C(=O)OCC(C)(COCCCCCCC[n+]1ccsc1)OC` (centres unmarked) was 100%; that for `CCCCCCCCCCCCCCCCCCN(C)C(=O)OCC(CC)(COP(=O)([O-])OCC[n+]1ccsc1)OC` (centres unmarked) was 100%. Take `CCCCCCCCCCCCCCCCCCN(C)C(=O)OCC(CC)(COP(=O)(O)OCCn1ccnc1)OC` (centres unmarked): the inhibition at 50 µM turned out to be 23%. As to `CCCCCCCCCCCCCCCCOCC(C)(COC(=O)OCC[n+]1ccccc1)OC` (centres unmarked), the inhibition at 50 µM was found to be 68%. On the same count and under the same terms, the value for `CCCCCCCCCCCCCCCCCCN(C)C(=O)OCC(COP(=O)([O-])OCC[n+]1ccsc1)(OC)C(C)C` (centres unmarked) was 100%; that for `CCCCCCCCCCCCCCCCCCN(C)C(=O)OCC(C)(COCCCCCCC[n+]1ccsc1)SC` (centres unmarked) was 100%.

As to `CCCCCCCCCCCCCCCCCCN(C)C(=O)OCC(C)(COC(=O)NCC[N+](C)(C)C)OC` (centres unmarked), the inhibition at 50 µM stood at 67%. Same read-out and setting: the value for `CCCCCCCCCCCCCCCCCCN(C)C(=O)OCC(C)(COC(=O)NCC[n+]1ccsc1)OC` (centres unmarked) was 97%; that for `CCCCCCCCCCCCCCCCCCN(C)C(=O)OCC(C)(COCCCCCCC[n+]1ccsc1)[S+](C)[O-]` (centres unmarked) was 100%. The same measure, in the same setting: the value for `CCCCCCCCCCCCCCCCOCC(C)(COC(=O)NCC[n+]1ccsc1)OC` (centres unmarked) was 44%. Regarding `CCCCCCCCCCCCCCCCCCN(C)C(=O)OCC(C)(COCCCC[n+]1ccsc1)OC` (centres unmarked), the inhibition at 10 µM was 100%. The same measure, in the same setting: the value for `CCCCCCCCCCCCCCCCCCN(C)C(=O)OCC(C)(COC(=O)N(CC[n+]1ccccc1)C(C)=O)OC` (centres unmarked) was 100%.

Regarding `CCCCCCCCCCCCCCCCCCN(C)C(=O)OCC(C)(COCCCCCCCN1CCSC1)OC` (centres unmarked), the inhibition at 50 µM was determined as 10%. For `CCCCCCCCCCCCCCCCCCN(C)C(=O)OCC(C)(COCCCCCCCn1cc[n+](C)c1)OC` (centres unmarked), the inhibition at 10 µM came to 93%. On the same count and under the same terms, the value for `CCCCCCCCCCCCCCCCCCN(C)C(=O)OCC(C)(COCCCCCCC[N+]1(C)CCSC1)OC` (centres unmarked) was 93%. On to `CCCCCCCCCCCCCCCCCCN(C)C(=O)OCC(C)(COCCCCCCCn1cnc(CC(=O)OCc2ccccc2)c1)OC` (centres unmarked), for which the inhibition at 50 µM amounted to 19%. As to `CCCCCCCCCCCCCCCCCCN(C)C(=O)OCC(C)(COCCCCCCCn1cnc(CC(=O)O)c1)OC` (centres unmarked), the inhibition at 50 µM is 19%. Same read-out and setting: the value for `CCCCCCCCCCCCCCCCCCN(C)C(=O)OCC(C)(COCCCCCCCOC(=O)C1CSCN1)OC` (centres unmarked) was 3%; that for `CCCCCCCCCCCCCCCCCCN(C)C(=O)OCC(C)(COCc1ccc(C[n+]2ccsc2)cc1)OC` (centres unmarked) was 100%; that for `CCCCCCCCCCCCCCCCCCN(C)C(=O)OCC(C)(COCCCCCCC[n+]1ccsc1)S(C)(=O)=O` (centres unmarked) was 100%. On the same count and under the same terms, the value for `CCCCCCCCCCCCCCCCCCN(C)C(=O)OCC(C)(CC)COCCCCCCC[n+]1ccsc1` (centres unmarked) was 100%. On the same count and under the same terms, the value for `CCCCCCCCCCCCCCCCCCN(C)C(=O)OCC(C)(COCCCCCCCOC(=O)C(N)CSC)OC` (centres unmarked) was 28%; that for `CCCCCCCCCCCCCCCCCCN(C)C(=O)OCC(C)(CNC(=O)OCC[n+]1ccccc1)OC` (centres unmarked) was 100%; that for `CCCCCCCCCCCCCCCCCCN(C)C(=O)OCC(C)(COC(=O)NCCCCC[n+]1ccsc1)OC` (centres unmarked) was 100%. `CCCCCCCCCCCCCCCCCCN(C)C(=O)OCC(C)(CNC(=O)OCC[N+](C)(C)C)OC` (centres unmarked): the inhibition at 50 µM came out at 83%. In the case of `CCCCCCCCCCCCCCCCCCN(C)C(=O)OCC(C)(CNS(=O)(=O)CCn1ccnc1)OC` (centres unmarked), the inhibition at 50 µM was 12%. The same measure, in the same setting: the value for `CCCCCCCCCCCCCCCCCCN(C)C(=O)OCC(C)(COCCCCCCCn1ccnc1N)OC` (centres unmarked) was 17%. On the same count and under the same terms, the value for `COC(C)(COCCCCCCC[n+]1ccsc1)COC(=O)Nc1ccccc1` (centres unmarked) was 100%; that for `CC(COCc1ccc(CN2CCSC2=N)cc1)(COC(=O)Nc1ccccc1)S(C)(=O)=O` (centres unmarked) was 90%.

With `COC(C)(COCCCCCCCN1CCSC1=N)COC(=O)Nc1ccc(F)cc1F` (centres unmarked), the inhibition at 50 µM stood at 91%.

One may read the inhibition as the share of the control response that was lost under treatment.
